# Test results from publication PMC3674988, “Scrutinizing MHC-I Binding Peptides and Their Limits of Variation” (PLoS Computational Biology, 2013).
# Test system: H-2K^b:IgG fusion protein
# Experiment: Thermal denaturation assay, direct binding of SIINFEKL fragments
# Set-up: species or system mouse
# Details: normalized fluorescence melting curves, first derivative; vs NoLigand; 100 µM peptide
# Method: Thermal denaturation studies were conducted using a StepOnePlus real-time PCR system (Applied Biosystems) with MicroAmp optical 96-well plates (Applied Biosystems cat. no. N8010560). Wells were loaded with 10 µl of H-2K^b:IgG fusion protein solution (protein conc. = 0.5 mg×ml^−1; BD Biosciences cat. no. 550750) – respectively 10 µl of PBS buffer (pH 7.36) for ligand-only controls – 2 µl of peptide or peptide fragments, 2 µl of 10× SYPRO Orange (SigmaAldrich cat. no. S5692) and 6 µl (8 µl for negative controls) to yield a total volume of 20 µl per well. Final concentrations calculated to 1 µM for H-2K^b:IgG fusion protein, 100 µM for the peptides/peptide fragments and 1× SYPRO Orange. Fluorescence intensity was measured using the Applied Biosystems ROX preset with respective excitation/emission maxima at 587/607 nm, while heating the wells continuously from 25°C to 99°C with a ramp rate of 1% (temperature increase of 1.5°C per minute). Results were recorded by StepOne 2.2.2 software and analyzed by identifying the local minimum of the derivative of the melting curve for the segment relevant for denaturation of the peptide-binding superdomain (α1,2) of the MHC-I heavy chain.
row,Substance,Melting point shift of peptide-MHC-I complex (melting curves)
1,IINFEKL [synthesized SIINFEKL fragment],significant melting point shift
2,INFE [synthesized SIINFEKL fragment],no melting point shift
3,INFEKL [synthesized SIINFEKL fragment],significant melting point shift
4,SIINFE [synthesized SIINFEKL fragment],significant melting point shift

# Other lines, results leading:
row,Melting point shift of peptide-MHC-I complex (melting curves),Substance
1,significant melting point shift,SIINF [synthesized SIINFEKL fragment]
2,significant melting point shift,SIINFEK [synthesized SIINFEKL fragment]
